Earlier results as cited in patent US20190192601A1, “EXTRACTS OF CYCLANTHERA PEDATA AND FORMULATIONS AND USES THEREOF” (priority 2014, published 2019).

Tests used:
[1] = in vivo

Molecule: O=C(CCCN1CCN(c2ccc(F)cc2)CC1)NC1c2ccccc2CSc2ccccc21 (stereo not drawn) [Monatepil]
- plasma lipid levels [1]: found to reduce

Molecule: vitamin E
- lower risk of heart disease (patients; supplementation with 30 IU to 100 IU): 41%
- progression of coronary artery disease (patients; supplementation with 100 IU): reduced progression
